Source: patent US20200131144A1, “AMINE OR (THIO)AMIDE CONTAINING LXR MODULATORS” (Phenex-FXR GmbH, priority 2017, published 2020)
pEC50: −log10 of the molar value. Where two headings read alike, the source gives them in different places.

What was measured:
[1] = biological target: T1, GST-LXRβ ligand-binding domain (Homo sapiens, UniProt P55055, INS174Q); test: TR-FRETβ activity assay (NCoA3 coactivator peptide recruitment); format: biochemical; conditions: 1 μM 24(S)-25-epoxycholesterol as prestimulating agonist; inverse agonist unless *
T1 construct: amino acids 156-461; NP009052; made in house; host or cells: E. coli
T1 sequence (P55055 with tags, fused parts or gaps INS174Q limits assumed): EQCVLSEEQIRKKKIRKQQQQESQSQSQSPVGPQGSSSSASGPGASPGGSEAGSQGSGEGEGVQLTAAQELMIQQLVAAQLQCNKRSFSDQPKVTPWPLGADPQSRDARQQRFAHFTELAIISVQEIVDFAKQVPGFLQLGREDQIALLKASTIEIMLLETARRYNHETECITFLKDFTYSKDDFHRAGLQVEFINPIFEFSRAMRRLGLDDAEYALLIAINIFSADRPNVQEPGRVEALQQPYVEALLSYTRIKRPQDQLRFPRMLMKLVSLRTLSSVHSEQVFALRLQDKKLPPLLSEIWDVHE
How it was run: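 E. coli-expressed GST-LXRβ LBD (aa 156-461, 76 nM) with biotinylated NCoA3 peptide (400 nM), anti-GST-Tb cryptate donor and streptavidin-XL665 acceptor in 240 mM KCl, BSA, 0.002% Triton X-100. Equilibrated 1 h at 4° C; TR-FRET read at 615/665 nm, triplicates.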

[2] = Pharmacokinetics in mice after single oral dosing, blood and liver exposure by LC-MS; format: in vivo, mice (C57/bl6/J); conditions: single oral dose 20 mg/kg
How it was run: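 Male C57BL/6J mice fasted ≥12 h, given a single oral dose of 20 mg/kg (n=3 per group). Sacrifice at 4, 12 or 24 h post-dose; liver and blood levels quantified by LC-MS.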

[3] = Short term HFD mouse model: liver and plasma exposure after multiple oral dosing; format: in vivo, mice (C57BL/6J); conditions: C57BL/6J, HFD mice, 4 h after final dose; for Kp at 4 h: liver/plasma, read-out: liver/plasma ratio, 4 h
Text: Short Term HFD Mouse Model:
For this, C57BL/6J were purchased from Elevage Janvier (Rennes, France) at the age of 8 weeks. After an acclimation period of two weeks, animals were prefed on a high fat diet (HFD) (Ssniff Spezialdiäten GmbH, Germany, Surwit EF D12330 mod, Cat. No. E15771-34), with 60 kcal % from fat plus 1% (w/w) extra cholesterol (Sigma-Aldrich, St. Louis, Mo.) for 5 days. Animals were maintained on this diet during treatment with LXR modulators. The test compounds were formulated in 0.5% hydroxypropylmethylcellulose (HPMC) and administered in three doses (from 1.5 to 20 mg/kg each) by oral gavage according to the following schedule: on day one, animals received treatment in the morning and the evening (ca. 17:00), on day two animals received the final treatment in the morning after a 4 h fast and were sacrificed 4 h thereafter. Animal work was conducted according to the national guidelines for animal care in Germany.
Multiple oral dosing of compounds from the present invention in mice lead to a high liver exposure with a favourable liver to plasma ratio. […] These genes are related to hepatic de-novo lipogenesis. A suppression of these genes will reduce liver fat (liver triglycerides).

## Cc1ccc2ccccc2c1CN(Cc1ccc(-c2cccc(C(C)(C)C(=O)O)c2)cc1)Cc1ccc(C(F)(F)F)o1 [Example 24, 2-Methyl-2-(4′-((((2-methylnaphthalen-1-yl)methyl)((5-(trifluoromethyl)furan-2-yl)methyl)amino)methyl)-[1,1′-biphenyl]-3-yl)propanoic acid]
[1]
  pEC50: > 7.00
[2]; male, C57/bl6/J, mouse, liver/blood, time point 4 h, read-out: liver/blood ratio
  Kp at 4 h: 11
[2]; male, C57/bl6/J, mouse, liver/blood, time point 12 h, read-out: liver/blood ratio
  Kp at 12 h: 5.7
[2]; male, C57/bl6/J, mouse, liver/blood, time point 24 h, read-out: liver/blood ratio
  Kp at 24 h: 2.9
[2]; time point 4 h
  blood/plasma exposure: 0.96 µM
  liver exposure: 10.3 µM
[2]; time point 12 h
  blood/plasma exposure: 0.21 µM
  liver exposure: 1.2 µM
[2]; time point 24 h
  blood/plasma exposure: 0.04 µM
  liver exposure: 0.13 µM
[3]; liver, three oral doses of 5 mg/kg each, read-out: liver exposure, 4 h
  concentration at 4 h: 2.6 µM
[3]; liver, three oral doses of 20 mg/kg each, read-out: liver exposure, 4 h
  concentration at 4 h: 8.93 µM
[3]; three oral doses of 5 mg/kg each
  Kp at 4 h: 2.9
[3]; three oral doses of 20 mg/kg each
  Kp at 4 h: 2.5
[3]; plasma, three oral doses of 5 mg/kg each, read-out: plasma exposure, 4 h
  concentration at 4 h: 0.893 µM
[3]; plasma, three oral doses of 20 mg/kg each, read-out: plasma exposure, 4 h
  concentration at 4 h: 3.52 µM
